The results in this text go back to ChEMBL document CHEMBL4507261, “Data for DCP probe A-192621” (2021).

Structures are written as SMILES. Active and inactive are the calls of the source. The rule behind the calls is not given here.

The target of assay [1] is Histamine H4 receptor (Homo sapiens) (UniProt Q9H3N8). The settings on record: Compound concentration 10.0 uM.
The target of assay [2] is Muscarinic acetylcholine receptor M3 (Homo sapiens) (UniProt P20309). The settings on record: Compound concentration 10.0 uM.
Muscarinic acetylcholine receptor M3 (Homo sapiens), sequence (P20309 whole entry, looked up): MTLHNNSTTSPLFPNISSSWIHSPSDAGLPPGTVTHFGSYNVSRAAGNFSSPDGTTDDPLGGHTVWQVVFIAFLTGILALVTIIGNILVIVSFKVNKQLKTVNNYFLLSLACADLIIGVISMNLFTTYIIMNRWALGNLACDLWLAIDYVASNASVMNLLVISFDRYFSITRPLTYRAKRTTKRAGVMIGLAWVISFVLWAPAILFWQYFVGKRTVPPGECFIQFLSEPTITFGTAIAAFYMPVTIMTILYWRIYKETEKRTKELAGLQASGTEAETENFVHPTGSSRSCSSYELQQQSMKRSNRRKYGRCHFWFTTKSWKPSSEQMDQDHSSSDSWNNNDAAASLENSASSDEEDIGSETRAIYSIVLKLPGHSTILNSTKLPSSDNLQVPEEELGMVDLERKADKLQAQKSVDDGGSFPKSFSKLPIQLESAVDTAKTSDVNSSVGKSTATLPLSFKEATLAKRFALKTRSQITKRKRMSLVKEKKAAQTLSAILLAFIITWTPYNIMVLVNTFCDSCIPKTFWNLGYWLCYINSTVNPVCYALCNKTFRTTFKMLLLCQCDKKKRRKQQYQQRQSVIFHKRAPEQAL
In assay [3] the target is T1, 5-hydroxytryptamine receptor 2C (Homo sapiens) (UniProt P28335).
T1 sequence (whole entry): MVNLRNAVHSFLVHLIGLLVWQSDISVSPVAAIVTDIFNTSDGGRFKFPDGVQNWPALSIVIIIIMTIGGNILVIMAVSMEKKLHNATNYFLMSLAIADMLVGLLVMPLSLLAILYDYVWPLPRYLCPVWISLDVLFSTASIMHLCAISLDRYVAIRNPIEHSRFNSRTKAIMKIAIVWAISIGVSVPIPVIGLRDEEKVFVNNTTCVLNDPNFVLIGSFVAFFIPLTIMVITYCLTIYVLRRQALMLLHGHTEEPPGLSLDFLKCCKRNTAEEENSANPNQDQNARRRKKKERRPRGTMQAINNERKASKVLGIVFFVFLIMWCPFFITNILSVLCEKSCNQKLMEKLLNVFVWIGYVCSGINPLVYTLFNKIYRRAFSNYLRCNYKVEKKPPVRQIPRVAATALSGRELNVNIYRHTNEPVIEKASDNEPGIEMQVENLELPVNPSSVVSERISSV
The settings on record: Compound concentration 10.0 uM.

For assay [4], the target named is 5-hydroxytryptamine receptor 1D (Homo sapiens) (UniProt P28221). The settings on record: Compound concentration 10.0 uM.
5-hydroxytryptamine receptor 1D (Homo sapiens), sequence (P28221 whole entry): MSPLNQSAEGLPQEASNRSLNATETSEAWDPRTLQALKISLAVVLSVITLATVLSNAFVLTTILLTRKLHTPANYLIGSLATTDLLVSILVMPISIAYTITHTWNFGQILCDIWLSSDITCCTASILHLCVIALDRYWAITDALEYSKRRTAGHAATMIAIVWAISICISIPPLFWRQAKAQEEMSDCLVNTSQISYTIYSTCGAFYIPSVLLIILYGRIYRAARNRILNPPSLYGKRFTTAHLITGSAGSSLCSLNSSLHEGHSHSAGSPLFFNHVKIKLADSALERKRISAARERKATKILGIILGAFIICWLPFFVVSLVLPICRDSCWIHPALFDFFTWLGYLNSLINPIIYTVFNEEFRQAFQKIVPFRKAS
The target in assay [5] is Alpha-2C adrenergic receptor (Homo sapiens) (UniProt P18825). The settings on record: Compound concentration 10.0 uM.
Alpha-2C adrenergic receptor (Homo sapiens), sequence (P18825 whole entry): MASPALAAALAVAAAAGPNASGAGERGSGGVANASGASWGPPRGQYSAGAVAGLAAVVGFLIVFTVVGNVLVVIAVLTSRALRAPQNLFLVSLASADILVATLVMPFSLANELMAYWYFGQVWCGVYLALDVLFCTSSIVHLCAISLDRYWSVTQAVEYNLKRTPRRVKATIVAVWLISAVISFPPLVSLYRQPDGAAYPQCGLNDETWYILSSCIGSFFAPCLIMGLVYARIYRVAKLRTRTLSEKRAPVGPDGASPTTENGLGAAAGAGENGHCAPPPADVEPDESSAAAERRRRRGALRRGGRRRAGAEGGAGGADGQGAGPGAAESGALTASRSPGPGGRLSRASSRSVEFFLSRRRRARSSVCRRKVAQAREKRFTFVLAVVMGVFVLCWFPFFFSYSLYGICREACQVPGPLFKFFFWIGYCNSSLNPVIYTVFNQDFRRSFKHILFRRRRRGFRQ
The target of assay [6] is Tyrosine-protein kinase CSK (Homo sapiens) (UniProt P41240). The settings on record: Compound concentration 1000.0 nM.
Tyrosine-protein kinase CSK (Homo sapiens), sequence (P41240 2-450 limits assumed): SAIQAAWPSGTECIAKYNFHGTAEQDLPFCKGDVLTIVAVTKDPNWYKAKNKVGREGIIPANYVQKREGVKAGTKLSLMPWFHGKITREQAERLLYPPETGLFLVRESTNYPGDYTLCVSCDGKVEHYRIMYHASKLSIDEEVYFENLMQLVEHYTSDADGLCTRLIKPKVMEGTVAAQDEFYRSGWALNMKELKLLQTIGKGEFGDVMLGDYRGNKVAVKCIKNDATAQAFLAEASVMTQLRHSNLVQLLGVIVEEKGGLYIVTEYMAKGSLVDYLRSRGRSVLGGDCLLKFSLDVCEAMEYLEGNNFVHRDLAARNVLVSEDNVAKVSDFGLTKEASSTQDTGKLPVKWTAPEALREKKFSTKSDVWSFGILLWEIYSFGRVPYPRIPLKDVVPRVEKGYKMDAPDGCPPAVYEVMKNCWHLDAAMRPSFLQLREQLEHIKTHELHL
The target of assay [7] is T2, Muscarinic acetylcholine receptor M5 (Homo sapiens) (UniProt P08912).
T2 sequence (whole entry): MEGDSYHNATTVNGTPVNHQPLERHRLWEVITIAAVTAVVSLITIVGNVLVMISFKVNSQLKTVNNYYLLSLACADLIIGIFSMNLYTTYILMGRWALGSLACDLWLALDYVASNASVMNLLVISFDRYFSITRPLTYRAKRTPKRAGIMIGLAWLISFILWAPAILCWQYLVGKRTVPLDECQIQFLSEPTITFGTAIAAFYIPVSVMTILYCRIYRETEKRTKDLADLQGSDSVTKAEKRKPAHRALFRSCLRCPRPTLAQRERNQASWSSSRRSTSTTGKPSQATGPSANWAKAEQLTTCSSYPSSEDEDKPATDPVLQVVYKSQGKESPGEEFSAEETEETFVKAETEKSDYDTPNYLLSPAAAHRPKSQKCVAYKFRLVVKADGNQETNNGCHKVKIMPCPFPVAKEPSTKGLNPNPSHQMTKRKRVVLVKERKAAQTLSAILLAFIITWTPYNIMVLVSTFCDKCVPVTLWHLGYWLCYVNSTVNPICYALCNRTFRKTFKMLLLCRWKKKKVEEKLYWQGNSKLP
The settings on record: Compound concentration 10.0 uM.

Assay [8] concerns the target Histamine H2 receptor (Homo sapiens) (UniProt P25021). The note with it: Compound concentration 10.0 uM.
In assay [9] the target is D(4) dopamine receptor (Homo sapiens) (UniProt P21917). The settings on record: Compound concentration 10.0 uM.
D(4) dopamine receptor (Homo sapiens), sequence (P21917 whole entry): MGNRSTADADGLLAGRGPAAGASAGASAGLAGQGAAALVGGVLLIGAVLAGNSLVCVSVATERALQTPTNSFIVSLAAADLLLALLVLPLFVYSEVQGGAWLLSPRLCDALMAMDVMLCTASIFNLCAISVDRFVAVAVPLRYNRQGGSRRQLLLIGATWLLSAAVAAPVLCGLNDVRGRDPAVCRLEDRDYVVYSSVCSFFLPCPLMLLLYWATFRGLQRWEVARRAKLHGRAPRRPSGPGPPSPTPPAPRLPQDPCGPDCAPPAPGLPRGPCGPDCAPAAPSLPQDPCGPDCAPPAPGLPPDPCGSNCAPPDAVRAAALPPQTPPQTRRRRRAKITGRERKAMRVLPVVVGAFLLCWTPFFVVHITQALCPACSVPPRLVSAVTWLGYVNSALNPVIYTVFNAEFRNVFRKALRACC
The target of assay [10] is T3, Alpha-2B adrenergic receptor (Homo sapiens) (UniProt P18089).
T3 sequence (whole entry): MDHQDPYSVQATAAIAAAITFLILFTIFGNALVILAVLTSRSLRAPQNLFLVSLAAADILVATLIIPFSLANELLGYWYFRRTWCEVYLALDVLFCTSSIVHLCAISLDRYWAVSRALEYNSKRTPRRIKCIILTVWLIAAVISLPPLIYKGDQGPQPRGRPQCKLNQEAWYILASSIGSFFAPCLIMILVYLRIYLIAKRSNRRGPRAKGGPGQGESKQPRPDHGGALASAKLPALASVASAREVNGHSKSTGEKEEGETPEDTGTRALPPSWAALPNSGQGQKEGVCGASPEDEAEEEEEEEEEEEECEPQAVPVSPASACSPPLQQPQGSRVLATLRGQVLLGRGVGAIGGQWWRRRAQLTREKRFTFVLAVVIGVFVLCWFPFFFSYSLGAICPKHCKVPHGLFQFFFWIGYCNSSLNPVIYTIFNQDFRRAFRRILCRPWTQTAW
The note with it: Compound concentration 10.0 uM.

Assay [11] deals with GABA-A receptor; anion channel (Rattus norvegicus) (UniProt O09028+P15431+P18506+P18508+P19969+P20236+P23574+P23576+P28471+P28473+P30191+P62813+P63079+P63138+Q91ZM7+Q9ES14). The note with it: Compound concentration 10.0 uM.
For assay [12], the target named is Endothelin receptor type B (Homo sapiens, UniProt P24530). The assay is described as follows: EDNRB- dependent phosphatidylinositol hydrolysis assay. It counts as functional.
Endothelin receptor type B, sequence (P24530 whole entry): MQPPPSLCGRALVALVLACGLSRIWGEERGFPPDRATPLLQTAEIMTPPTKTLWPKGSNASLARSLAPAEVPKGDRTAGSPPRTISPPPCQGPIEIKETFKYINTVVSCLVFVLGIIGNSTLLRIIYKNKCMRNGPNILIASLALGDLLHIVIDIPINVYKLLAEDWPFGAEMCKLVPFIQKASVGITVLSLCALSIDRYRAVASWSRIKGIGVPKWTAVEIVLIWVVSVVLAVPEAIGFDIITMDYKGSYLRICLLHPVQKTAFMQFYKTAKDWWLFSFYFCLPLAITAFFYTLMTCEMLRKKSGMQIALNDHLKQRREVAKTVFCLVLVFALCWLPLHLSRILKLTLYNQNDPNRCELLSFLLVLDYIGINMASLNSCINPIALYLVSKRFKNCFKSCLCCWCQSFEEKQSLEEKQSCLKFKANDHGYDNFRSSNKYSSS
For assay [13], the target named is Histamine H1 receptor (Homo sapiens) (UniProt P35367). The settings on record: Compound concentration 10.0 uM.
Histamine H1 receptor (Homo sapiens), sequence (P35367 whole entry): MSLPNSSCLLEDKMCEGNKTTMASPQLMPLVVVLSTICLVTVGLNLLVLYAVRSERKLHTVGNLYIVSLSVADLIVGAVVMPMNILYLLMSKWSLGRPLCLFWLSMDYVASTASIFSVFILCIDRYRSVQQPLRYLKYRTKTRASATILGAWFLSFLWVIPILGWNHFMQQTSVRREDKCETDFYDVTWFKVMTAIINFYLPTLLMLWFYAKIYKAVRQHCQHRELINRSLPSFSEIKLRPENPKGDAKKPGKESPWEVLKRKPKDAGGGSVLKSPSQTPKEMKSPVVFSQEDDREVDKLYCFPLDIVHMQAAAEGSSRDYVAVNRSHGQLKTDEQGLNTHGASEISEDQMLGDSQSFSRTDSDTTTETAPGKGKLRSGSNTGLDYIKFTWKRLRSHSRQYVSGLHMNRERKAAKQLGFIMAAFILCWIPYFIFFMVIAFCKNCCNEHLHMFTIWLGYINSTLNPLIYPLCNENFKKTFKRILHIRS
Assay [14] has as its target D(1B) dopamine receptor (Homo sapiens) (UniProt P21918). The note with it: Compound concentration 10.0 uM.
The target of assay [15] is Tyrosine-protein kinase Lck (Homo sapiens) (UniProt P06239). The note with it: Compound concentration 1000.0 nM.
Tyrosine-protein kinase Lck (Homo sapiens), sequence (P06239 2-509 limits assumed): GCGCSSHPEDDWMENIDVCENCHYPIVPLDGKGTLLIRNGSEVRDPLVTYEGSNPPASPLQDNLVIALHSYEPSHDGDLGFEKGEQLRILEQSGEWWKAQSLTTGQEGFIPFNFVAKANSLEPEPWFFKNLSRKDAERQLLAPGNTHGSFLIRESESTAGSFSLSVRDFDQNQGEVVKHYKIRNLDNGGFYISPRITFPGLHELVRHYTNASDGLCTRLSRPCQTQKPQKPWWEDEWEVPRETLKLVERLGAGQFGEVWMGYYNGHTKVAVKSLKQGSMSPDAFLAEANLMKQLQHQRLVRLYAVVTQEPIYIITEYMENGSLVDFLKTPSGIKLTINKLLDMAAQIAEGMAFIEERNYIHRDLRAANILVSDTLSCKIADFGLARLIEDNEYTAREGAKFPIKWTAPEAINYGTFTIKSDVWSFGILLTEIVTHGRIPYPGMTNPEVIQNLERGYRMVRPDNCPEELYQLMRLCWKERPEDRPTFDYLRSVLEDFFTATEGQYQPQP
For assay [16], the target named is 5-hydroxytryptamine receptor 2A (Homo sapiens) (UniProt P28223). The settings on record: Compound concentration 10.0 uM.
Assay [17] deals with D(3) dopamine receptor (Homo sapiens) (UniProt P35462). The settings on record: Compound concentration 10.0 uM.
D(3) dopamine receptor (Homo sapiens), sequence (P35462 whole entry): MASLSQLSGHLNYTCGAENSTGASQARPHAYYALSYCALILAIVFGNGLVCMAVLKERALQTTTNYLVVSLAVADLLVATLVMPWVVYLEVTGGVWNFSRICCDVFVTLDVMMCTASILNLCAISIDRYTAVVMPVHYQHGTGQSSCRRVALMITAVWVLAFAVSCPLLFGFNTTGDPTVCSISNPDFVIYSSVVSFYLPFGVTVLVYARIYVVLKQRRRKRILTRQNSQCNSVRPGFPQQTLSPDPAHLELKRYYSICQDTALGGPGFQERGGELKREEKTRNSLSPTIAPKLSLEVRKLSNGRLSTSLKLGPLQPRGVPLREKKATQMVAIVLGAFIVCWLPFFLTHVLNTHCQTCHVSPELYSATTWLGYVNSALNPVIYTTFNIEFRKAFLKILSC
Assay [18] concerns the target T4, Alpha-1A adrenergic receptor (Homo sapiens) (UniProt P35348).
T4 sequence (whole entry): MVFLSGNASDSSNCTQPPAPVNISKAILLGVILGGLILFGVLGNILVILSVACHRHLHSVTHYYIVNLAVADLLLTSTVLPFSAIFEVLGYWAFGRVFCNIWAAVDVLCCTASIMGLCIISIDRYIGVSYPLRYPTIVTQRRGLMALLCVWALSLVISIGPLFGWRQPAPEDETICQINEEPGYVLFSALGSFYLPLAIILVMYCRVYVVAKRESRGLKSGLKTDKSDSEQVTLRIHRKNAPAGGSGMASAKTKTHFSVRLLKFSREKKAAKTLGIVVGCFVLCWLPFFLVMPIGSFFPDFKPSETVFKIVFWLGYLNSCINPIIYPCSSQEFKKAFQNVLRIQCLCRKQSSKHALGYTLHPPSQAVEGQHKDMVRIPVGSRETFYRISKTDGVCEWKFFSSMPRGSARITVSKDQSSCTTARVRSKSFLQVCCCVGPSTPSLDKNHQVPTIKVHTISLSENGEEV
The settings on record: Compound concentration 10.0 uM.

The target in assay [19] is Beta-3 adrenergic receptor (Homo sapiens) (UniProt P13945). The note with it: Compound concentration 10.0 uM.

Histamine H2 receptor (Homo sapiens), sequence (P25021 whole entry): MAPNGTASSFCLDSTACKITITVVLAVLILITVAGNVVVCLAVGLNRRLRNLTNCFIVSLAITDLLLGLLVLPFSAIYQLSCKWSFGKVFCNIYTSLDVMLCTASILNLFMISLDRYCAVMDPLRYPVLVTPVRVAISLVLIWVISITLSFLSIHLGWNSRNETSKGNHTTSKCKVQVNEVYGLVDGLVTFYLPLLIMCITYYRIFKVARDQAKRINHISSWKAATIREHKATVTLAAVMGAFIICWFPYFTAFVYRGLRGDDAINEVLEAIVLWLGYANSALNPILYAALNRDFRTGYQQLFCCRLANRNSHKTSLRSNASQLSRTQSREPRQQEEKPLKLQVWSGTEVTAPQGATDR
D(1B) dopamine receptor (Homo sapiens), sequence (P21918 whole entry): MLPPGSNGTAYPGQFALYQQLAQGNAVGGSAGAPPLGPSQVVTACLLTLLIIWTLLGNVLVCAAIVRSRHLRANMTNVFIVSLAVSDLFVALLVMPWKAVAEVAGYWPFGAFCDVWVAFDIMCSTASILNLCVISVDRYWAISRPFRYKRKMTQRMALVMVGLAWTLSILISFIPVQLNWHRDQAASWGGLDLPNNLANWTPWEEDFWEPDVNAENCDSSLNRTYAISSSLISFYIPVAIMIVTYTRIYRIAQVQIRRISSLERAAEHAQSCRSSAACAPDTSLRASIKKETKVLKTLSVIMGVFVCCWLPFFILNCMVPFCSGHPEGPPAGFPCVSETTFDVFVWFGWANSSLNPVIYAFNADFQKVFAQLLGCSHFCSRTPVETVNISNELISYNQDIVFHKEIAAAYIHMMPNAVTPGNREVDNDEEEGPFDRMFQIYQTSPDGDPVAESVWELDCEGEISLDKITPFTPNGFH

Regarding `CCCOc1ccc([C@H]2[C@H](C(=O)O)[C@@H](c3ccc4c(c3)OCO4)CN2CC(=O)Nc2c(CC)cccc2CC)cc1` [A-192621], the inhibition in assay [1] was 7.94%; in assay [2], -5.06%; in [3], -5.44%; in assay [4], -3.09%; in assay [5] it was 0.5%; in [7] it was 27.3%. Moreover, the inhibition in [8] is 5.77%; in assay [9], -3.59%; in assay [10], 10.4%; in [11] it was 5.57%; in [13] it was 36%; in assay [14], 11%. Also, the inhibition in assay [16] is 4.84%; in assay [17], -5.43%; in assay [18], -9.09%; in assay [19] it was 13.3%. Further, the residual activity in [6] was 80%; in assay [15], 100%. Besides, the IC50 in assay [12] is 0.8 nM (active).
As to `CCCOc1ccc([C@@H]2[C@@H](C(=O)O)[C@H](c3ccc4c(c3)OCO4)CN2CC(=O)Nc2c(CC)cccc2CC)cc1` [A-1806262], the residual activity was 91% in assay [6] and 100% in [15].

Usually inhibition stands for the drop in the measured response relative to a control, in per cent. As a reminder, the residual activity is the signal under treatment as a percentage of the control signal. In general, IC50 refers to the concentration needed to halve the response being measured.
